Tested on: MMP1 (collagénase interstitielle humaine)
Test: Amount of MMP-1 produced by PMA-stimulated fibroblasts (ELISA)
Assay type: cell-based, humains
Details: for inhibition at 0.04 %: ganoderic acids 0.04 %, versus témoin + PMA, read-out: diminution de la quantité MMP1; for activity at 0.04 %: read-out: % témoin +PMA; for MMP1 (ng/ml): 4 h pre-incubation, +PMA 0.1 µg/ml
Source text: Les essais figurant au tableau 2 ci-après concernent la régulation d'une enzyme, la MMP1 (collagénase interstitielle humaine) appartenant aux métalloprotéinases, de la famille des protéases, enzymes dégradant la matrice extra-cellulaire, la MMP1 dégradant particulièrement le collagène natif.
Les essais, dont les résultats figurent au tableau 2, ont donc consisté à comparer l'activité de la DHEA et des acides ganodériques B, C2 et G sur la régulation de l'activité de la MMP1 après stimulation des fibroblastes par PMA.
• Fibroblastes humains normaux profonds (type R2Ad2), utilisé au 2e passage. • Culture: 37° C, 5 % CO2 • Milieu de croissance : milieu Tebu PM-1 • Milieu d'essai : DMEM/HAMF10, vol/vol (Invitrogen 21969035 / Invitrogen 31550-023) • Hepes 15 mM (Invitrogen 1563-056) • L-glutamine 2 mM (Invitrogen 25030024) • pénicilline 50 UI/ml streptomycine 50 µg/ml (Invitrogen 15070063) • sans sérum de veau foetal
• solution stock : 10 % dans l'éthanol puis dilution à 0.1 % dans une solution de BSA délipidée à 5 mg/ml final • dilutions : en milieu de culture stérile • concentration finale testée: 0.001 % (50 µg/ml BSA 1^e conc, final) Acide Ganodérique B • solution stock : 10 % en DMSO • dilutions : en milieu de culture stérile • concentration finale testée: 0.04 % (50 µg/ml BSA final) Acide Ganodérique C2 • solution stock : 10 % en DMSO • dilutions : en milieu de culture stérile • concentration finale testée: 0.04 % (50 µg/ml BSA final) Acide Ganodérique G • solution stock : 10 % en DMSO • dilutions : en milieu de culture stérile • concentration finale testée: 0.04 % (50 µg/ml BSA final)
Les cellules ont été ensemensées à 17000 cellules par puits, en plaques 96 puits, une plaque pour chaque temps de culture. Toutes les conditions en triplicata (3 puits de culture). Les cellules ont été pré-cultivées pendant 24 h en milieu sans SVF. Après 24 h de pré-culture, les milieux ont été remplacés par un milieu équivalent contenant) les produits à l'essai ou non (contrôles) ou la DHEA à 0.001 %. Après 4 h d'incubation, une solution 10 fois concentrée de « phorbol myristate acétate » (PMA, Sigma, 0.1 µg/ml final) a été ajoutée ou non (contrôles) et les cellules ont été cultivées pendant 6 h supplémentaires.
A la fin de chaque temps de culture, les milieux de culture ont été récupérés et congelés à -80 °C pour dosage de la quantité de MMP-1 et la viabilité des tapis cellulaires a été contrôlée en utilisant un test standard de réduction du MTT.
Le dosage de MMP-1 (collagénase interstitielle humaine) a été réalisé par ELISA, à l'aide d'un kit « BIOTRACK human MMP-1, ELISA system, Amersham RPN2610 », selon les directives du fournisseur.
Résumé des conditions testées : • Modèle : fibroblastes humains • Test : dosage quantité de MMP-1 produite (protéine, ELISA) • Milieux : sans sérum • Tests : produits à l'essai, DHEA 0.001 % ou contrôles non traités, pendant 4 h • Stimulation : ajout de PMA (ou non, contrôles) et culture pendant 6 h. Produits (selon viabilités sur fibroblastes): • A.G. B 0:04 %; • A.G. C2 0.04 %; • A.G. G 0.04 %; • DHEA 10 µg/ml
Les données brutes de comptage ont été transférées et traitées sous le logiciel PRISM® (Graph Pad Software).
Les comparaisons inter-groupes ont été réalisées par analyse de variance (ANOVA) à l'aide du test de comparaison multiple de Dunnett.

[1] = Fibroblast, ganoderic acid 0,04%, normal human fibroblasts, +PMA, 6h
[2] = ganoderic acid 0,04%, normal human fibroblasts, 6h, Témoin + PMA 17,89

Compound | inhibition at 0.04 % (Fibroblast, 6 h) | activity at 0.04 % [1] | MMP1 (ng/ml) [2] | effets anti-vieillissement (régulation MMP1) (result in words, comparison between ganoderic acids B, C2 and G at 0.04 %) | MMP1 (ng/ml) (DHEA 0,001%, normal human fibroblasts, 6h, Témoin + PMA 10,54) | % témoin +PMA (DHEA 0,001%, normal human fibroblasts, +PMA, 6h, 360 min) | activity at 0.001 % (Fibroblast, 6 h, read-out: % témoin +PMA, DHEA 0,001%, normal human fibroblasts, +PMA, 6h)
CC(CC(=O)CC(C)C1CC(=O)C2(C)C3=C(C(=O)CC12C)C1(C)CCC(O)C(C)(C)C1CC3O)C(=O)O (stereo not shown) [A. ganodérique B, Acide Ganodérique B] | ~30% | 76% | 13,52 ng/ml |  |  |  | 
CC(CC(=O)CC(C)C1CC(O)C2(C)C3=C(C(=O)CC12C)C1(C)CCC(O)C(C)(C)C1CC3O)C(=O)O (stereo not shown) [A. ganodérique C2, Acide Ganodérique C2] | ~30% | 72% | 12,95 ng/ml |  |  |  | 
CC(CC(=O)CC(C)C1CC(=O)C2(C)C3=C(C(=O)C(O)C12C)C1(C)CCC(O)C(C)(C)C1CC3O)C(=O)O (stereo not shown) [A. ganodérique G, Acide Ganodérique G] | > 40% | 57% | 10,15 ng/ml | activité supérieure aux deux autres acides ganodériques |  |  | 
C[C@]12CC[C@H](O)CC1=CC[C@@H]1[C@@H]2CC[C@]2(C)C(=O)CC[C@@H]12 [DHEA, DéHydroEpiAndrostérone, reference compound] |  |  |  |  | 6,38 ng/ml | 61% | 60%
